Data as given in patent publication US20040204423A1, “Crystalline antifungal polymorph” (priority 1997, published 2004).

Assay: Solid-state stability of polymorph Form I: conversion into other forms under normal storage and stress conditions
Type: physicochemical
Description: The three crystalline polymorphic forms of the compound of formula designated as Form 1, II and III can readily be distinguished from one another by examination of the characteristic x-ray Diffraction patterns (see FIGS. 1-3), the characteristic infrared spectra (see FIGS. 4-6) and the characteristic Differential Scanning Calorimetry ([…]) thermograms (FIGS. 7-9).

Measured: conversion into any other form

CCC([C@H](C)O)n1ncn(-c2ccc(N3CCN(c4ccc(OC[C@@H]5CO[C@@](Cn6cncn6)(c6ccc(F)cc6F)C5)cc4)CC3)cc2)c1=O (single isomer, unassigned; (-)) [Form 1]
did not convert into any other form: normal storage conditions (15′-30° C. and protected from light) | stress condition: 75% relative humidity at 40° C. for 6 weeks | stress condition: 75° C. for 6 weeks | stress condition: 97% relative humidity at ambient temperature for 2 minutes | stress condition: 150° C. for 2 hours
